The test concerns P. falciparum 3D7 growth, pLDH absorbance. The test can be described thus: P. falciparum 3D7 growth inhibition, dose response, strain 3D7 (AID 2305).

The values that follow come from PubChem BioAssay AID2305 (GlaxoSmithKline (GSK), 2010).

By IC50 is commonly meant the concentration that gives 50% inhibition. Low values mean inhibition by little substance, high ones a need for much substance. With `Oc1ccc(Nc2nc(NCc3ccccc3)c3ccccc3n2)cc1`, the IC50 was determined as 190 nM. The result for `CCOc1cc(CNCCCCCCNCc2cc(OCC)c(OCC)c3ccccc23)c2ccccc2c1OCC` reads 280 nM; that for `O=C(CCc1cnc[nH]1)Nc1ccc(-c2cccc(-c3nc4ccccc4[nH]3)c2)cc1`, 350 nM. The result for `Cc1cccc2[nH]c(-c3ccc(-c4cccc(CN5CCN(c6ccncc6)CC5)c4)s3)nc12` reads 130 nM. The result for `COCCN1CCC(CN(C)CC(C)(C)c2nc(-c3ccc(Cl)c(O)c3)c(-c3ccncc3)[nH]2)CC1` reads 1030 nM; that for `O=S(=O)(NCCN1CCCC1)c1ccc(-c2ccc(CNCc3ccsc3)cc2)cc1F`, 810 nM.

The compound `N#Cc1cccc(CN2CCCN(c3ccc(NC(=O)c4cccs4)cc3)CC2)c1` had an IC50 of 810 nM.

`Cc1ccc(CNC(=O)[C@H](Cc2ccccc2)Nc2cc(C)nc(NCC3CCCCC3)n2)cc1` registered an IC50 of 900 nM.

Turning to `Cc1nccn1Cc1cc(C(C)(C)C)c(O)c(C(C)(C)C)c1`, the IC50 amounted to 790 nM.

`NC1CCN(Cc2ccc(-c3ccc(-c4nc5ccccc5[nH]4)cc3)cc2)C1` (stereo not given) registered an IC50 of 150 nM.

Consider `CCC[C@@H]([C@@H](CC1CCC(C)CC1)C(=O)N[C@@H](CCCCNC(=O)c1ccccn1)C(=O)Nc1nccs1)N(O)C=O` (stereo not given in full), for which the IC50 was 50 nM. Compared with the last compound, the IC50 is about 3-fold lower. The compound `CN1C(=C2SC(=Nc3ccc4ncccc4c3)N(Cc3ccccc3)C2=O)Sc2ccc(Cl)cc21` yielded an IC50 of 1060 nM.

In turn, `CC(C)Sc1nncc(-c2cnnc(SC(C)C)n2)n1` registered an IC50 of 140 nM. The result for `N#Cc1ccc(CN2CCC(Oc3ccc(NC(=O)c4cccs4)cc3)CC2)cc1` reads 1030 nM; that for `COC(=O)c1ccc2[nH]cc(C3CCN(CCC4CCN(C(=O)/C=C/c5ccc(Cl)c(Cl)c5)CC4)CC3)c2c1`, 510 nM.

For `COc1ccc2nccc([C@@H](O)CN3CCC(NCc4cc5oc(=O)n(C)c5cc4F)CC3)c2c1`, the IC50 amounted to 660 nM. The result for `CCOc1ccc(Br)cc1/C=C/C(=O)Nc1ccc2c(c1)CCCN(C)C2` reads 1050 nM.

`COc1ccc2nccc([C@@H](O)CN3CCC(NCCOc4ccc(F)cc4[N+](=O)[O-])CC3)c2c1` registered an IC50 of 120 nM. In the case of `Cn1nc(C(F)(F)F)c(-c2ccc(F)cc2)c1NC(=O)Nc1ccc(F)cc1F` it was 760 nM; in that of `CN(CCCCNC(=O)/C=C/c1ccccc1)C1CC2(CCN(C(=O)OC(C)(C)C)CC2)c2ccccc21` (stereo not given), 1140 nM. The result for `CCc1cn(CCc2ccccc2)c2ccc(C(=O)N[C@@H](Cc3ccccc3)[C@H](O)CNC(C)(C)CCCC(C)C)cc12` reads 220 nM. In the case of `CN1CC[C@@H](Oc2cc(Nc3nc(-c4ccc(C#N)cc4)cs3)ccc2Cl)C1` it was 820 nM; in that of `COc1ccc(-c2csc(N(CCCN(C)C)C(=O)c3cc4c(C)nn(-c5ccccc5)c4s3)n2)cc1`, 620 nM; in that of `c1ccc2ncc(CNCCCCCCCCNCc3cnc4ccccc4c3)cc2c1`, 850 nM. `COc1ccc(N2CCN(CCCN3CCN(C(=O)c4ccc(/C=C/c5ccc(Cl)c(Cl)c5)cc4)CC3)CC2)c(OC)c1` came in with an IC50 of 910 nM. In the case of `COc1cc2nc(N3CC(C)N(C(=O)Cc4ccc(-c5ccccc5)cc4)C(C)C3)nc(N)c2cc1OC` (stereo not given) it was 800 nM.

Turning to `O=C1C(c2ccccc2)=C(Nc2cc(Cl)cc(Cl)c2)c2ccccc21`, the IC50 amounted to 370 nM. The compound `C=CCOC(=O)N1CCC(CNCc2ccc(-c3cccc(-c4nc5ccc(F)cc5[nH]4)c3)cc2)C1` (stereo not given) yielded an IC50 of 140 nM. Against the preceding compound, the IC50 is about 2.6-fold lower. The result for `COc1ccc2nc3cc(Cl)ccc3c(NCCCCCCNc3c4ccc(Cl)cc4nc4ccc(OC)cc34)c2c1` reads 660 nM. Turning to `CN(c1cc(NC(=O)c2cccs2)ccn1)C1CCN(Cc2ccccc2)CC1`, the IC50 was determined as 1020 nM. This IC50 is about 1.5-fold higher than that of the compound before. In turn, `CCC1=C[C@@H]2CN(C1)Cc1c([nH]c3ccccc13)[C@@](C(=O)OC)(c1cc3c(cc1OC)N(C)[C@H]1[C@@](O)(C(=O)OC)[C@H](O)[C@]4(CC)C=CCN5CC[C@]31[C@@H]54)C2` yielded an IC50 of 870 nM. In the case of `N#Cc1ccc(N2CCN(Cc3ccc(-c4ccc(-c5nc6ccccc6[nH]5)s4)cc3)CC2)nc1` it was 1080 nM; in that of `CC[C@H]1CN2CCc3cc(OC)c(OC)cc3[C@@H]2C[C@@H]1C[C@H]1NCCc2c1cc(OC)c(OC)c2Br`, 650 nM. The compound `CCCN(CCCCNC(=O)c1ccc(-c2cccnc2)cc1)C1CCc2c(O)cccc2C1` (stereo not given) yielded an IC50 of 1120 nM. In the case of `CCCCCNc1nc(Nc2ccccc2C)nc2ccccc12` it was 740 nM; in that of `COc1ccc(CCNCCCCCCNCCc2ccc(Cl)c(Cl)c2)cc1OC`, 930 nM. In the case of `FC(F)(F)c1cccc(NC(=S)NN=Cc2ccccn2)c1` it was 350 nM; in that of `NC(=O)c1cccc(Nc2nccc(Nc3ccc4[nH]c(-c5ccccc5)cc4c3)n2)c1`, 780 nM; in that of `CCCCc1cc(=O)oc2cc(C)cc(OCc3ccccc3F)c12`, 1030 nM. The result for `Cc1cc(N2CCC(N(C)C)C2)nc(Nc2ccc(Cl)cc2)n1` (stereo not given) reads 520 nM.

The compound `Cc1cc(C)cc(NC(=S)NCCCCN2CCN(c3cccc(Cl)c3)CC2)c1` returned an IC50 of 1350 nM. In the case of `COc1ccc(C(=O)Nc2ccc(-c3nc4ccc(C)cc4[nH]3)cc2)cc1OC` it was 760 nM; in that of `O=C(Nc1cccc(-c2ccc(-c3nc4ccc(C(F)(F)F)cc4[nH]3)s2)c1)c1cnc[nH]1`, 1110 nM; in that of `COc1ccc(CN2C(=S)N(Cc3ccccc3)C(=O)C2CC(=O)Nc2ccccc2)cc1OC` (stereo not given), 840 nM. The result for `C=C[C@H]1CN2CC[C@H]1C[C@H]2[C@H](O)c1cc(/C=C/c2ccc(F)cc2)nc2ccc(OC)cc12` reads 30 nM; that for `COc1ccc2ncc(F)c(CCN3C[C@H](CNCc4cc(C#N)c5c(c4)OCCO5)[C@H](O)C3)c2n1`, 580 nM; that for `CCC(=O)N(c1ccccc1)C1CCN(CCCC(NC(=O)Nc2cc(C(F)(F)F)cc(C(F)(F)F)c2)c2ccc(Cl)c(Cl)c2)CC1` (stereo not given), 670 nM.

The compound `COC(=O)c1ccc(CC(C)NCC(O)c2cccc(C(F)(F)F)c2)cc1F` (stereo not given) showed an IC50 of 1060 nM.

With `Nc1nc(N)c2c3c(ccc2n1)NCCC3`, the IC50 amounted to 730 nM.

`COc1ccc(-c2nnc(Sc3ccc(C#N)c([N+](=O)[O-])c3)n2CCC(C)C)cc1` displayed an IC50 of 1110 nM. In the case of `CCc1c[nH]c2c(N3CCCC3=O)cc(C(=O)N[C@@H](Cc3ccccc3)[C@H](O)CNC3CCCCC3)cc12` it was 100 nM; in that of `O=C(Nc1cccc(Cl)c1Cl)NC1CCN(Cc2cccc(O)c2)CC1`, 800 nM. In the case of `O=C1OC2(CN1CC1CCN(Cc3ccc(-n4ccnc4)cc3)C1)c1ccccc1-c1ccccc12` (stereo not given) it was 980 nM; in that of `N#CNC(=NCCCSc1csc(N=C(N)N)n1)NCCCCCCCCN=C(NC#N)NCCSCc1csc(N=C(N)N)n1`, 840 nM; in that of `O=C(Cc1cc(=O)oc2cc(O)ccc12)N1CCC(CN2CCC(c3c[nH]c4ccccc34)CC2)CC1`, 870 nM. In the case of `O=C(Nc1cccc(CN2CCCN(Cc3cccc(O)c3)CC2)c1)c1ccc(Cl)c(Cl)c1`, the IC50 was found to be 660 nM. In the case of `CN1CCN(c2ccc3nc(-c4ccc5nc(-c6ccc(O)cc6)[nH]c5c4)[nH]c3c2)CC1` it was 120 nM. In the case of `COC(=O)C(=O)c1c(-c2ccccc2)c(-c2ccc(OC)c(OC)c2)c2c3cc(OC)c(OC)cc3ccn12` it was 640 nM. Take `CCC1(c2ccccc2)N=C(N)N(CCCc2ccccc2)C1=O` (stereo not given): the IC50 was 890 nM. The result for `OC(COCc1ccc(-c2ccccc2)cc1)CN1CCCCC1` (stereo not given) reads 270 nM.

`Cc1ccc(NC(=O)c2cccc(CN3CCCN(Cc4cccc(O)c4)CC3)c2)cc1` registered an IC50 of 1310 nM. Consider `CC(=O)Nc1ccc(CN2CCN(C(c3ccc(F)cc3)c3ccc(F)cc3)CC2)cc1`, for which the IC50 came to 830 nM. This IC50 lies about 1.6-fold lower than the previous one. In turn, `N#Cc1ccc(-c2ccc(C(=O)NC3CCN(CCN4CCc5c(cccc5C(F)(F)F)C4)CC3)cc2)cc1` showed an IC50 of 700 nM. The result for `Cc1cc(N2CCC(NS(=O)(=O)c3ccc(F)cc3)CC2)nc(Nc2cccc(C#N)c2)n1` reads 650 nM; that for `CC(C)(C)OC(=O)Nc1cccc(-c2csc(N=C(N)N)n2)c1`, 840 nM. The result for `CN(C)CCOc1ccc(NC(=O)Nc2ccnc3c(Br)cccc23)cc1Cl` reads 840 nM.

The compound `COc1ccc2nccc([C@@H](O)CN3CCC(NCc4cc5ccccc5[nH]4)CC3)c2n1` showed an IC50 of 630 nM. The IC50 values of the last two compounds are within 1.5-fold of each other. In the case of `COC(=O)c1cc(NC(=O)Nc2ccc(Cn3ncc(N4CCCNCC4)c(Cl)c3=O)cc2)cc(C(=O)OC)c1` it was 710 nM.

In turn, `CCC1=C(C[C@H]2NCCc3cc(OC)c(OC)cc32)C[C@H]2c3cc(OC)c(OC)cc3CCN2C1` returned an IC50 of 310 nM. In the case of `O=C(Cn1c2ccccc2c(=O)c2ccc(Cl)cc21)Nc1ccc(C(F)(F)F)cc1` it was 530 nM; in that of `Cc1cccc2[nH]c(-c3ccc(-c4cccc(CN5CCN(CC6CCCN(C)C6)CC5)c4)s3)nc12` (stereo not given), 120 nM; in that of `Cc1cc(C(=O)Nc2ccc3c(c2)CCN3C2CCN(Cc3cc(F)cc(F)c3F)C2)no1` (stereo not given), 280 nM. In the case of `Cc1ccc(NC(=O)NC2CCN(c3ccnc4cc(Cl)ccc34)CC2)cc1` it was 320 nM; in that of `Cc1cc(N[C@@H](Cc2ccccc2)C(=O)NCCOc2ccccc2)nc(Nc2ccccc2)n1`, 870 nM; in that of `COc1ccc(Cl)cc1NC(=O)CN(C)C(=O)c1cnn(-c2ccccc2)n1`, 230 nM. In the case of `CC(C)C[C@@H](CNC[C@H](CC(C)C)NC(=O)OC(C)(C)C)NC(=O)OC(C)(C)C` it was 1250 nM. Consider `Cc1nc(-c2nc(N3CCC(C(N)=O)CC3)ncc2-c2ccsc2)sc1C`, for which the IC50 stood at 900 nM. The result for `CCn1cnc2c(Nc3cccc([N+](=O)[O-])c3)nc(N3CCC(N4CCCCC4)CC3)nc21` reads 950 nM; that for `Cc1ccccc1C(O)CNc1ccnc(Nc2cccc(C#N)c2)n1` (stereo not given), 880 nM. Compound `CC(Nc1ccc2c(c1)OCCO2)C(=O)Nc1cc(C(F)(F)F)ccc1N1CCOCC1` (stereo not given) had an IC50 of 410 nM. The result for `O=C(c1ccccc1F)N(Cc1ccc(Cl)cc1)c1ccccn1` reads 1020 nM. The result for `Cc1cc(N[C@@H](CC(C)C)C(=O)NCCc2ccccc2)nc(NCC2CCCCC2)n1` reads 900 nM; that for `COc1ccc2nccc(NN=Cc3ccc(N(C)C)cc3)c2c1`, 800 nM. In the case of `O=C(N[C@H]1CCN(Cc2ccc(OCCCN3CCCCC3)cc2)C1)c1cc(Cl)cc(Cl)c1` it was 620 nM. In the case of `COc1cccc(C2CCN(CCCCNC(=O)c3ccc(NC(=O)c4ccc(Cl)cc4)cc3)CC2)c1`, the concentration for half-maximal inhibition (IC50) is 960 nM. Compared with the last compound, the IC50 is about 1.5-fold higher.
